Tests used:
MRSA 63718 = test system: MRSA 63718; design: method as in PMID 25692135; conditions: cited from earlier work
[1] = test system: vancomycin-resistant E. faecalis VRE 368 (VRE2); assay: MBC, agar aliquot subculture method; format: cell-based, Enterococcus faecalis; conditions: VRE2 = VRE 368
S. aureus = assay: Crystal violet uptake (membrane permeability); format: cell-based, Staphylococcus aureus; conditions: 4× MIC, 1 h; compared to growth control and 1% Tween 20
Procedure: Phenothiazines are also known for their ability to interact with and damage the cell wall, which has fatal consequences for the microorganism. Therefore, the bacterial suspensions were treated by compounds 6a, 6e, 6g, 6j and 6k (4× MIC) for 1 h. The uptake of crystal violet was expressed as a percentage compared to the original crystal violet solution.

[2] = test system: vancomycin-resistant E. faecalis VRE 368 (VRE2); assay: MIC, microtitration broth method; format: cell-based, Enterococcus faecalis; conditions: VRE2 = VRE 368; 24 h, 37 °C
[3] = test system: vancomycin-resistant E. faecalis VRE 342B (VRE1); assay: MIC, microtitration broth method; format: cell-based, Enterococcus faecalis; conditions: VRE1 = VRE 342B; 24 h, 37 °C
[4] = test system: methicillin-resistant S. aureus SA 630 (MRSA2); assay: MIC, microtitration broth method; format: cell-based; conditions: Staphylococcus aureus; MRSA2 = SA 630; 24 h, 37 °C
[5] = test system: vancomycin-resistant E. faecalis VRE 725B (VRE3); assay: MBC, agar aliquot subculture method; format: cell-based, Enterococcus faecalis; conditions: VRE3 = VRE 725B
[6] = test system: methicillin-resistant S. aureus 63718 (MRSA3); assay: MBC, agar aliquot subculture method; format: cell-based; conditions: Staphylococcus aureus; MRSA3 = 63718
M. smegmatis ATCC 700084 = assay: In vitro antimycobacterial MIC, broth dilution micro-method; format: cell-based, Mycobacterium smegmatis; conditions: Mycolicibacterium smegmatis, ATCC700084, 72 h; MS = M. smegmatis ATCC 700084; 3 days, 37 °C
Lipophilicity by RP-TLC = format: physicochemical; conditions: Tris buffer pH 7.4/acetone, read-out: logPTLC
Procedure: The lipophilicity parameters were determined experimentally using reverse phase thin-layer chromatography (RP-TLC). Chromatograms were prepared on RP-18F254s plates (1.05559.0001, Merck, Germany) precoated with nonpolar silicone oil. Plates were developed in glass chromatography chambers previously saturated with vapor of mobile phase. The mobile phase was composed of 0.2M Tris buffer (pH = 7.4) and acetone in different concentrations, i.e., 50%, 60%, 70%, 80 and 90%. The chromatograms were visualised in UV light (λ = 254 nm). Determination of the RF coefficient was carried out twice for all compounds; in all cases, acetone concentrations used. The final value of RF is the mean of the two measurements. The obtained RF coefficient was used to calculate the value of the RM parameter according to the equation: RM = log [(1/RF) − 1]. By extrapolating RM values to zero acetone concentration, a relative RM0 lipophilicity parameter was obtained, according to the equation: RM = RM0 + bC, where b is slope and C is concentration of acetone in mobile phase. Based on RM0 and the calibration curve, the values of logPTLC for compounds 6a–l were determined. The calibration curve was calculated using the relationship between RM0 of the standard molecules (acetanilide, p-kresol, p-bromoacetophenone, benzophenone, anthracene) and the corresponding logP parameters specified by the extraction method, respectively. RM0 parameters of the standard molecules and quinobenzothiazine derivatives 6a–l were determined in the same empirical conditions.

[7] = test system: Staphylococcus aureus ATCC 29213; assay: MBC, agar aliquot subculture method; format: cell-based; conditions: ATCC29213; SA = Staphylococcus aureus ATCC 29213
[8] = test system: S. aureus ATCC 29213 respiratory activity; assay: MTT assay of bacterial respiration; format: cell-based, Staphylococcus aureus
[9] = test system: methicillin-resistant S. aureus SA 3202 (MRSA1); assay: MIC, microtitration broth method; format: cell-based; conditions: Staphylococcus aureus; MRSA1 = SA 3202; 24 h, 37 °C
[10] = test system: Mycobacterium marinum CAMP 5644; assay: In vitro antimycobacterial MIC, broth dilution micro-method; format: cell-based; conditions: CAMP5644, 504 h; MM = Mycobacterium marinum CAMP 5644; 21 days, 28 °C
[11] = test system: methicillin-resistant S. aureus 63718 (MRSA3); assay: MIC, microtitration broth method; format: cell-based; conditions: Staphylococcus aureus; MRSA3 = 63718; 24 h, 37 °C
[12] = test system: Enterococcus faecalis ATCC 29212; assay: MIC, microtitration broth method; format: cell-based; conditions: ATCC29212; EF = Enterococcus faecalis; 24 h, 37 °C
[13] = test system: vancomycin-resistant E. faecalis VRE 725B (VRE3); assay: MIC, microtitration broth method; format: cell-based, Enterococcus faecalis; conditions: VRE3 = VRE 725B; 24 h, 37 °C
[14] = test system: methicillin-resistant S. aureus SA 3202 (MRSA1); assay: MBC, agar aliquot subculture method; format: cell-based; conditions: Staphylococcus aureus; MRSA1 = SA 3202
[15] = test system: normal human dermal fibroblasts (NHDF); assay: In vitro cell viability, WST-1 assay; format: cell-based; conditions: 72 h
Procedure: Compounds were evaluated for their antiproliferative activity using NHDF (normal human dermal fibroblasts, ATCC, Manassas, VA, USA). The cultured cells were kept at 37 °C and 5% CO2. The cells were seeded (1 × 10^4 cells/well/100 μL DMEM supplemented with 10% FCS and streptomycin/penicillin) into 96-well plates (Corning Inc., Corning, NY, USA). Cells were counted using a hemocytometer (Burker chamber) and phase contrast Olympus IX50 microscope equipped with Sony SSC-DC58 AP camera and Olympus DP10 digital camera. The cell viability of the compounds was determined using the Cell Proliferation Reagent WST-1 assay (Roche Molecular Biochemicals, Mannheim, Germany). The examined cells were exposed to the tested compounds (1 mg/mL DMSO stock) for 72 h at various concentrations (0.1–100 μg/mL). The control was included in order to eliminate the DMSO effect at the concentration used. Cell cultures were incubated with WST-1 (10 μL) for 1 h. The absorbance of the samples was measured against a background control at 450 nm using a microplate reader with a reference wavelength at 600 nm. The obtained results are expressed as means of at least two independent experiments performed in triplicate.

[16] = test system: Staphylococcus aureus ATCC 29213; assay: MIC, microtitration broth method; format: cell-based; conditions: ATCC29213; SA = Staphylococcus aureus ATCC 29213; 24 h, 37 °C
[17] = test system: vancomycin-resistant E. faecalis VRE 342B (VRE1); assay: MBC, agar aliquot subculture method; format: cell-based, Enterococcus faecalis; conditions: VRE1 = VRE 342B
[18] = test system: methicillin-resistant S. aureus SA 630 (MRSA2); assay: MBC, agar aliquot subculture method; format: cell-based; conditions: Staphylococcus aureus; MRSA2 = SA 630
[19] = test system: Enterococcus faecalis ATCC 29212; assay: MBC, agar aliquot subculture method; format: cell-based; conditions: ATCC29212; EF = Enterococcus faecalis
[20] = S. aureus ATCC 29213, MTT, 24 h

In the case of CN[C@H](CC(C)C)C(=O)N[C@H]1C(=O)N[C@@H](CC(N)=O)C(=O)N[C@H]2C(=O)N[C@H]3C(=O)N[C@H](C(=O)N[C@H](C(=O)O)c4cc(O)cc(O)c4-c4cc3ccc4O)[C@H](O)c3ccc(c(Cl)c3)Oc3cc2cc(c3O[C@@H]2O[C@H](CO)[C@@H](O)[C@H](O)[C@H]2O[C@H]2C[C@](C)(N)[C@H](O)[C@H](C)O2)Oc2ccc(cc2Cl)[C@H]1O [vancomycin], the MIC of vancomycin (MRSA 63718) is given as 2 µg/mL.

In the case of CCCOc1ccc2c(c1)Sc1c[n+](C)c3ccccc3c1N2 [Compound 6a, 9-propoxy-5-methyl-12H-quino[3,4-b][1,4]benzothiazinium chloride], the MBC [1] is reported as 89.1 µM, the “Effect on plasma membrane permeability (uptake of crystal violet)” value (S. aureus) is reported as “did not affect plasma membrane permeability” and the MIC [2] is reported as 89.1 µM. The MIC [3] was 89.1 µM, the MIC [4] was 22.3 µM and the MBC [5] was 178 µM. It also gave an MBC [6] of 11.1 µM, an MIC (M. smegmatis ATCC 700084) of 22.3 µM and a chromatographic logP (Lipophilicity by RP-TLC) of 1.65. For the same compound, the MBC [7] was 22.3 µM, the “Conc.: corresponding multiple of MBC with at least 70% inhibition of respiratory activity” value [8, 20] was 2× MIC (2× MBC) and the “Conc.: lowest multiple of MIC with at least 70% inhibition of respiratory activity” value [8, 20] was 2× MIC (2× MBC). For the same compound, the “Decrease in viability < 70% at MIC value (MTT)” value ([8]; S. aureus ATCC 29213, at MIC) was “did not show a decrease in viability < 70%”, the “S. aureus Respiration Inhibition” value ([8]; at the concentration given) was 97.7% and the MIC [9] was 22.3 µM. The MIC [10] was 22.3 µM, the MIC [11] was 11.1 µM and the MIC [12] was 89.1 µM. The MIC [13] was 89.1 µM, the MBC [14] was 22.3 µM and the IC50 [15] was > 100 µM. The MIC [16] was 22.3 µM, the MBC [17] was 89.1 µM and the MBC [18] was 22.3 µM. It also gave an MBC [19] of 89.1 µM.

From paper PMC9736374, “Design, Synthesis and Antimicrobial Properties of New Tetracyclic Quinobenzothiazine Derivatives” (International Journal of Molecular Sciences, 2022)
